Active and inactive are the calls of the source.
What was measured:
Format in all cases: functional
[1] = system: Vero; experiment: viability loss in Vero cells – cell-based, plate reader, cherry-pick samples, cytotoxicity control, dose response (AID 687020); conditions: Chlorocebus sabaeus
[2] = target: T1, Beta-2 adrenergic receptor (Homo sapiens, UniProt P07550); experiment: Dose response for HTS for Beta-2AR agonists via FAP method from Powderset1.
[3] = target: T1, Beta-2 adrenergic receptor; experiment: ADRB2 activation measured by internalization – cell-based, FAP fluorogen, flow cytometry, cherry pick 1, dose response (AID 588763)
[4] = target: T2, Carboxy-terminal domain RNA polymerase II polypeptide A small phosphatase 1 (Homo sapiens, UniProt Q9GZU7); experiment: CTDSP1 inhibitors, concentration-response, biochemical, absorbance readout, ultra-high-throughput screen actives (AID 540297)
T2 sequence (Q9GZU7 whole entry): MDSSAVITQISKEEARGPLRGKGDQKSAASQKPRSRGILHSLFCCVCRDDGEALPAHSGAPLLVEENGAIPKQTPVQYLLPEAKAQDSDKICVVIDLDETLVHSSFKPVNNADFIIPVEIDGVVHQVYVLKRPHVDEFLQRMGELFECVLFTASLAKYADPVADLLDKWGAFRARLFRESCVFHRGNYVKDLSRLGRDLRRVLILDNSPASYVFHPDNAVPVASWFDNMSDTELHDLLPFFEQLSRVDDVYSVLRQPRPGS

[5] = target: Arf-GAP with SH3 domain, ANK repeat and PH domain-containing protein 1 (Homo sapiens, UniProt Q9ULH1);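 also: biochemical fluorescence polarization dose–response screen measuring inhibition of ASAP1; ASAP1 GAP domain stimulating GTP hydrolysis by truncated human ARF1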
Arf-GAP with SH3 domain, ANK repeat and PH domain-containing protein 1, sequence (Q9ULH1 whole entry, the tested form may be a part): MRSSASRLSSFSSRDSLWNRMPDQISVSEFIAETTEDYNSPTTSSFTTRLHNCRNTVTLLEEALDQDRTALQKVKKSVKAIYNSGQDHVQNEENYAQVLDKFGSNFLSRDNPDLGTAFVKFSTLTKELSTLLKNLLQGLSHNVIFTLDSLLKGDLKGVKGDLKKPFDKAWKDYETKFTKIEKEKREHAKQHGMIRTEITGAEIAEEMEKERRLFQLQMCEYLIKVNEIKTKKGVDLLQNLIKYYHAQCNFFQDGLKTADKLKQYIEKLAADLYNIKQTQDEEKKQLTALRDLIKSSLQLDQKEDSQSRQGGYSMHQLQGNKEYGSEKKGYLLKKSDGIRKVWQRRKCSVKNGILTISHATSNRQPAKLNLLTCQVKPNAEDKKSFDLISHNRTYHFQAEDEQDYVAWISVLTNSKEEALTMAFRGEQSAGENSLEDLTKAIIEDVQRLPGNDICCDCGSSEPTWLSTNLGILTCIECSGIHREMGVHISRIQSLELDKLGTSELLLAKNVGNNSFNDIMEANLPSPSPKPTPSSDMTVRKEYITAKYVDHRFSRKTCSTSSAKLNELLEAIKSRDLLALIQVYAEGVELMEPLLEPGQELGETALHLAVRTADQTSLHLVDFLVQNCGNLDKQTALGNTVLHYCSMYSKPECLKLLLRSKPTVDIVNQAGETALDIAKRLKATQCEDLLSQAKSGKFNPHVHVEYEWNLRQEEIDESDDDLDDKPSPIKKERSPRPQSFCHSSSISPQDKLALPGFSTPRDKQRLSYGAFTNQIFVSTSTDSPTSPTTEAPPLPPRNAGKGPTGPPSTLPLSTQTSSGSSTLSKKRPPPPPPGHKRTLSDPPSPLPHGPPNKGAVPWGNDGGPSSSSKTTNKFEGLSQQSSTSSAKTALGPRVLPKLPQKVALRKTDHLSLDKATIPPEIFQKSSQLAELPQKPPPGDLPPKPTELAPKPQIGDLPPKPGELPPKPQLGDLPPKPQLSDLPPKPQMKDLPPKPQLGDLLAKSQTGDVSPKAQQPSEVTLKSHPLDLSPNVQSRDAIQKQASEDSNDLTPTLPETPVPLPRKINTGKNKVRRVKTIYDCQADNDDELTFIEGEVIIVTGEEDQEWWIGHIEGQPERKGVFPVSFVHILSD

[6] = target: Dual specificity protein phosphatase 3 (Homo sapiens, UniProt P51452); experiment: VHR phosphatase inhibition, dose response, selectivity assay for STEP inhibitor project, biochemical (AID 602374); conditions: read-out: IC50_Mean
Dual specificity protein phosphatase 3, sequence (P51452 whole entry): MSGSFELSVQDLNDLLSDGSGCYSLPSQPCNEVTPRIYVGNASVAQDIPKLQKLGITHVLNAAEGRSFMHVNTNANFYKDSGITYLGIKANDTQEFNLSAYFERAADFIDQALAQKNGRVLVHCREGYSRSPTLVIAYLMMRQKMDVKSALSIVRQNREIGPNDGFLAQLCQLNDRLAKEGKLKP

[7] = target: T3, Tyrosine-protein phosphatase non-receptor type 5 (Homo sapiens, UniProt P54829); experiment: PTPN5 enzyme inhibition – biochemical, fluorescence intensity, uHTS hits, confirmation (AID 602372); conditions: read-out: IC50_Mean
T3 sequence (P54829 whole entry): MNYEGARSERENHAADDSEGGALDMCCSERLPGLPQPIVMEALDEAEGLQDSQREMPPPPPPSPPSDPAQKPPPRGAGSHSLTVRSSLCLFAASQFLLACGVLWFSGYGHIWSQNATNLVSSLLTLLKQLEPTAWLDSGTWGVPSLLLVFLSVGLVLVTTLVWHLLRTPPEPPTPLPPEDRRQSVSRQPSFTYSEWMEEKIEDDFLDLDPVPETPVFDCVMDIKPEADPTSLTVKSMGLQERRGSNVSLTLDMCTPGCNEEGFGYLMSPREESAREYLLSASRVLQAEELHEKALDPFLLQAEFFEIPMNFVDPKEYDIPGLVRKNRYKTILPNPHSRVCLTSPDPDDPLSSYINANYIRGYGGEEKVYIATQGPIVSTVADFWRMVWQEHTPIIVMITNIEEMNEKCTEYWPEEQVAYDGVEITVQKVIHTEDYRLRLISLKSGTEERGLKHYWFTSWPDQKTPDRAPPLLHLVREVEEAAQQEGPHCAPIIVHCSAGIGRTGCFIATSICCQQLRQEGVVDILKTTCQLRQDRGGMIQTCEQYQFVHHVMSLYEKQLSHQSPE

[8] = target: T4, Tyrosine-protein phosphatase non-receptor type 11 (Homo sapiens, UniProt Q06124); experiment: PTPN11 enzyme inhibitors – biochemical, selectivity assay for STEP inhibitor project, dose response (AID 602367); conditions: read-out: IC50_Mean
T4 sequence (Q06124 whole entry): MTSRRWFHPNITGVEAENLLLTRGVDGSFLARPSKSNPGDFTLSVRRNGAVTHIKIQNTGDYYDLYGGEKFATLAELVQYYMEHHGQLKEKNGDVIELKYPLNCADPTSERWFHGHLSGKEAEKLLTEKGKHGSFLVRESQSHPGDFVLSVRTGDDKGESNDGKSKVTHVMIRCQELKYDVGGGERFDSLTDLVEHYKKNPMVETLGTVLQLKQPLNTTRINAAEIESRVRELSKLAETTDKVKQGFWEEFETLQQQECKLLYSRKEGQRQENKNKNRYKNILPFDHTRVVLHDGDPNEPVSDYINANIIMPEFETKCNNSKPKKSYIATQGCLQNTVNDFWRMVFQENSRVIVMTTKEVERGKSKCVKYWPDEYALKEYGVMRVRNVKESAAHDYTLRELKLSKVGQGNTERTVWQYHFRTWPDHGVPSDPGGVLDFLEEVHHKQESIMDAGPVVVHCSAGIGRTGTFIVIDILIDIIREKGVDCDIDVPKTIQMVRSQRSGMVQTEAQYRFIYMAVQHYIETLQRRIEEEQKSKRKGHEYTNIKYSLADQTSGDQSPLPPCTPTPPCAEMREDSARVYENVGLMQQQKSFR

[9] = target: Broad substrate specificity ATP-binding cassette transporter ABCG2 (Homo sapiens, UniProt Q9UNQ0); experiment: blockers of JC-1 export by ABCG2 – Ig-MXP3 cells, flow cytometry, dose response (AID 1690)
Broad substrate specificity ATP-binding cassette transporter ABCG2, sequence (Q9UNQ0 whole entry): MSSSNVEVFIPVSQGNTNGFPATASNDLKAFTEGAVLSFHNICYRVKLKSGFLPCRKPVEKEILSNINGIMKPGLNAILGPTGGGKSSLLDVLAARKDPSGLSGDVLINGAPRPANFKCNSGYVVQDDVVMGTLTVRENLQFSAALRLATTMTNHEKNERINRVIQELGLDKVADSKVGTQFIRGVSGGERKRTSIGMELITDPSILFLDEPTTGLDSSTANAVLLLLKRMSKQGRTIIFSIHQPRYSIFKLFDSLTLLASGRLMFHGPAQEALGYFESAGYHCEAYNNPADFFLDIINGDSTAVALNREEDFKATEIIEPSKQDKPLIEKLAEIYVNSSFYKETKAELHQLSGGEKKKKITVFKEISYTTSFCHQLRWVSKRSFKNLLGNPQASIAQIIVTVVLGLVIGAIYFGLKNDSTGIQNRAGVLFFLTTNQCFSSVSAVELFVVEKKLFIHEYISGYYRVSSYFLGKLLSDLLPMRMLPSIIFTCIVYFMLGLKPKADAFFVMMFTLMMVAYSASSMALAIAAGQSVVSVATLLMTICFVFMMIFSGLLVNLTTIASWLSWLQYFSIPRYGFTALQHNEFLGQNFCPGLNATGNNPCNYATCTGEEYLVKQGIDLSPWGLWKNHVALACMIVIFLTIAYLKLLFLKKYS

[10] = Counterscreen for activators of the function of SWI/SNF related, matrix associated, actin dependent regulator of chromatin, subfamily a, member 2 (SMARCA2, BRM): Luminescence-based cell-based high throughput dose response assay to identify non-selective compounds using the VP16 reporter assay.
[11] = viability of HCT116 lacking mutant beta-catenin – cell-based, human colon tumor, dose response (AID 1045);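 also: HCT116 colon tumor cells with beta catenin knocked out; cells exposed to compound for 60 hours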
[12] = viability of PTEN-deleted HCT116 cells – cell-based, HCT116 PTEN knockout, dose response (AID 1047);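 also: HCT116 colon tumor cells with PTEN knocked out; cells exposed to compound for 60 hours before readout; potency for loss of cell viability measured by luminescence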
[13] = target: SWI/SNF-related matrix-associated actin-dependent regulator of chromatin subfamily A member 2 (Homo sapiens, UniProt P51531); experiment: Luminescence-based cell-based high throughput dose response assay to identify activators of the function of SWI/SNF related, matrix associated, actin dependent regulator of chromatin, subfamily a, member 2 (SMARCA2, BRM).
SWI/SNF-related matrix-associated actin-dependent regulator of chromatin subfamily A member 2, sequence (P51531 whole entry): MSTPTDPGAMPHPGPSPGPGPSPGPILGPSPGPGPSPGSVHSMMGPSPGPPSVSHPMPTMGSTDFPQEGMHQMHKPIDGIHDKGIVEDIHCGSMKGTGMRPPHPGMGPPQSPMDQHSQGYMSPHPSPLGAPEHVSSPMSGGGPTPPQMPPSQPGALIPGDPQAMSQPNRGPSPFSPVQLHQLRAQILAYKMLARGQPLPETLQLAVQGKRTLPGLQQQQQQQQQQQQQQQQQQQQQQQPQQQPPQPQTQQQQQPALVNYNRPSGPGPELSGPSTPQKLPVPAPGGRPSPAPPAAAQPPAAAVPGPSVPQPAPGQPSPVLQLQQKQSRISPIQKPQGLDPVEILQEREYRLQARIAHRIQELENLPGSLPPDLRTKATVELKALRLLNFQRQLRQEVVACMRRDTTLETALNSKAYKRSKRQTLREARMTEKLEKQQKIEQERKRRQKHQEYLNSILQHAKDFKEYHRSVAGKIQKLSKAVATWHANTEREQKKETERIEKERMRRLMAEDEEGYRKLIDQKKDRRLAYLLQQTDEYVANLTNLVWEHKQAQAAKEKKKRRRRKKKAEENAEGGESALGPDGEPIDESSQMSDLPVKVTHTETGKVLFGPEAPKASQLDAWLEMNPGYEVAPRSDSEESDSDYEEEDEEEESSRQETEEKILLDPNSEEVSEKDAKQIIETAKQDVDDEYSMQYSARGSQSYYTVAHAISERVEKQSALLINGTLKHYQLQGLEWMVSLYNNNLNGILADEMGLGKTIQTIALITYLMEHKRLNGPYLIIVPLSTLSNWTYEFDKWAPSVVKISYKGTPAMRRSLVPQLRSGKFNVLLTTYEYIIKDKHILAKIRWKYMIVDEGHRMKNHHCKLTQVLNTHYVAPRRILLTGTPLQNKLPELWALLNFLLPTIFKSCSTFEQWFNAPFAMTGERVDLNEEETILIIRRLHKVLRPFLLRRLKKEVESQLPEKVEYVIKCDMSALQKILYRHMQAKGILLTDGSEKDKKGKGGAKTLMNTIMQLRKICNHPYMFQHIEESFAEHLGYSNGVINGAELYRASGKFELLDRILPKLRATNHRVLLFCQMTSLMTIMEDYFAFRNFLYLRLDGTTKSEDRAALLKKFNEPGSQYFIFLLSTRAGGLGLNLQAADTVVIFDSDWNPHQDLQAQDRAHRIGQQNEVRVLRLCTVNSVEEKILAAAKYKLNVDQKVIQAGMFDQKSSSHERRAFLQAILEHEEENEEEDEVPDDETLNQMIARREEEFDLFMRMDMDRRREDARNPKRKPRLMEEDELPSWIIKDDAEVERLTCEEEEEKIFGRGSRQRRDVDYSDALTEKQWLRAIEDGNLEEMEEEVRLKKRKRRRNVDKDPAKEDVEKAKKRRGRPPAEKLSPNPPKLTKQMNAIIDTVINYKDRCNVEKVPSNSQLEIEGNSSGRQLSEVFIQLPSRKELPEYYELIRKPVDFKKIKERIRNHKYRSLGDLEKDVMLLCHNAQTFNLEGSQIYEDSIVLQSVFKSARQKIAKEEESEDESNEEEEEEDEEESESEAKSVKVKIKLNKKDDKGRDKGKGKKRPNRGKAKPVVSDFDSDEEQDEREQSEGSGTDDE

T1 sequence (P07550 whole entry): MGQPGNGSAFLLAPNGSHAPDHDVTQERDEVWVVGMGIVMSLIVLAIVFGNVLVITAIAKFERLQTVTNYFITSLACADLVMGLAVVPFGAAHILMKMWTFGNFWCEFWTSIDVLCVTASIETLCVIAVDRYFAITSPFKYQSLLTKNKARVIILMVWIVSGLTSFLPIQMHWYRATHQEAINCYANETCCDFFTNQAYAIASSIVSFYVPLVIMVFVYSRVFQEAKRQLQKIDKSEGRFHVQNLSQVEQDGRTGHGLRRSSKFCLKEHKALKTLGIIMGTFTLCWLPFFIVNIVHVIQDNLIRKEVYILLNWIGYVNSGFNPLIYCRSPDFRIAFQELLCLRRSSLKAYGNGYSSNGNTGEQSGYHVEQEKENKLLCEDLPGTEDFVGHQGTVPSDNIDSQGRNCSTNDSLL

For `N#Cc1ccc(CN2CCN(C(=O)CC(NC(=O)c3ccccc3)c3ccccc3)CC2)cc1` (stereo not drawn), the AC50 [1] was 38.1 µM (active).
In the case of `Cc1ccc(SCC(=O)Nc2ccc(-c3nnc(-c4ccco4)o3)cc2)cc1`, the EC50 [2] is reported as 0.713 µM (active), the EC50 [3] is reported as 0.629 µM (active) and the IC50 [4] is reported as 9.04 µM (active).
With `Cc1nnc2sc(-c3ccc(NC(=O)c4ccc(-c5ccc(Cl)cc5Cl)o4)cc3)nn12` the IC50 [5] was 2.48 µM (active), the IC50 [6] was 0.716 µM (active) and the IC50 [7] was > 80 µM (inactive). For the same compound, the IC50 [8] was 0.409 µM (active).
With `COc1ccc2cc(C(=O)OC(C)C)sc(=O)c2c1OC` the EC50 [9] was 24.4 µM (inactive).
For `OC1CCCN(Cc2ccc3ccc4cccc5ccc2c3c45)C1` (stereo not drawn), the EC50 [10] was > 91.2 µM (inactive), the EC50 [11] was 8.21 µM (active) and the EC50 [12] was 8.96 µM (active). For the same compound, the EC50 [13] was > 10.1 µM (inactive).
